Holding throughout (experiment): growth of human tumour cells (NCI), 48 h
Assay [1] concerns BT-549 breast.
Assay [2] has as its system HL-60(TB) leukemia.
Assay [3] concerns SK-OV-3 ovarian.
Assay [4] deals with HS 578T breast.
Assay [5] concerns A549 NSCLC.
For assay [6], the system named is M14 melanoma.
The subject of assay [7] is ACHN renal.
The test system of assay [8] is OVCAR-3 ovarian.
In assay [9] the test system is DU-145 prostate.
In assay [10] the test system is UACC-62 melanoma.

For 7 compounds, GI50 and TGI results are on record in PubChem BioAssay (NCI).

Where “and” joins values, the source holds several entries; their conditions need not be identical. Equal values may be shown once.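 Grown in 96-well plates, cells were treated for 48 hours with each compound at five concentrations. Insufficient inhibition: endpoint recorded as highest concentration tested. Here, GI50 denotes the concentration required for 50% inhibition of growth. At the TGI there is no net growth.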

Turning to `CCNNC(=O)[C@@H]1[C@H](c2cc(OC)c(OC)c(OC)c2)c2cc3c(cc2[C@H](O)[C@H]1CO)OCO3`, the GI50 was 0.413 µM in assay [1]; 0.277 µM in assay [2]; 0.29 µM in assay [3]; 0.376 µM in [4]; 0.376 µM in assay [5]; 0.369 µM in [6]. Also, the GI50 in [7] was 0.755 µM; in [8], 0.275 µM; in assay [9] it was 0.537 µM; in assay [10] it was 0.398 µM. Besides, the TGI was 0.707 µM in assay [2]; 1.08 µM in [3]; above 100 µM in assay [4]; above 100 µM in assay [5]; above 100 µM in [6]; above 100 µM in assay [7]. The TGI in assay [8] is 0.804 µM; in assay [9] it was above 100 µM; in assay [10], above 100 µM.

With `COc1cc2c3c(n(CCCBr)c(=O)c2cc1OC)-c1ccc(F)cc1C3=O`, the GI50 in [1] is 13.9 µM; in assay [2], 24.8 µM; in assay [3], 15.8 µM; in [4], 32 µM; in assay [5] it was 36.8 µM; in assay [6] it was 8.92 µM. The GI50 in [7] is 4.47 µM; in [8] it was 24.6 µM; in assay [9] it was 4.33 µM; in assay [10] it was 3.93 µM. Moreover, the TGI in assay [1] is 49.7 µM; in assay [2], above 100 µM; in assay [3], 59 µM; in assay [4], above 100 µM; in [5], above 100 µM; in assay [6], above 100 µM. The TGI amounted to 36.3 µM in assay [7], 99.6 µM in [8], 20.6 µM in assay [9] and 24.5 µM in [10].

Regarding `C[C@@H](COCCC(=O)N1CCN(c2ncc(C(F)(F)F)cn2)CC1)Nc1cn[nH]c(=O)c1C(F)(F)F`, the GI50 is 0.078 µM in [1]; 16.1 µM in assay [2]; 53 µM in assay [3]; 50.7 µM in [4]; 45.7 µM in [5]; 32.9 µM in assay [6]. Further, the GI50 was 28.3 µM in assay [7], 97.5 µM in assay [8], 37.6 µM in assay [9] and 45.3 µM in assay [10]. Also, the TGI in [1], in assay [2], in assay [3], in assay [4], in assay [5] and in assay [6] was above 100 µM in each case. The TGI in [7], in assay [8], in assay [9] and in assay [10] was above 100 µM throughout.

For `Cc1nc2c(N3CCCC3)nc(N3CCNCC3)nc2nc1NCc1ccccc1`, the GI50 in assay [1] was 5.05 µM; in [2] it was 4.71 µM; in [3] it was 6.15 µM; in [4] it was 7.4 µM; in assay [5], 5.45 µM; in assay [6], 2.64 µM. Besides, the GI50 in assay [7] was 2.69 µM; in assay [8] it was 3.28 µM; in assay [9], 5.35 µM; in assay [10] it was 6.15 µM. The TGI is 10.7 µM and 14.8 µM in assay [1]; 13.2 µM and 11.8 µM in assay [2]; 11.7 µM and 20.5 µM in assay [3]; 17 µM and 18.7 µM in [4]; 12.6 µM and 14.2 µM in [5]; 9.12 µM and 3.53 µM in [6]. Further, the TGI in assay [7] was 7.54 µM and 16.5 µM; in assay [8] it was 9.27 µM and 10.7 µM; in [9], 19.4 µM and 21.3 µM; in [10] it was 12.7 µM and 7.58 µM.

Turning to `Cc1ccc2nc(-c3ccc(N)c4ccccc34)[nH]c2c1`, the GI50 in [1] is 0.399 µM; in [2], 0.102 µM; in assay [3] it was 0.283 µM; in assay [4], 0.263 µM; in [5], 0.781 µM; in [6], 0.054 µM. Also, the GI50 is 0.987 µM in assay [7], 0.748 µM in assay [8], 0.437 µM in assay [9] and below 0.0147 µM in [10]. Besides, the TGI was 21.1 µM in [1]; 3.29 µM in assay [2]; above 46.7 µM in [3]; 32.4 µM in [4]; above 46.2 µM in [5]; 0.427 µM in [6]. For the same compound, the TGI in [7] came out at 37.1 µM; in [8], 1.85 µM; in assay [9] it was 24.8 µM; in assay [10], 17.2 µM.

As for `O=C(COc1cccc(/C=C2\Oc3ccc4ccccc4c3C2=O)c1)c1ccc(Cl)cc1`, the GI50 is 20.5 µM in [1]; 16.1 µM in assay [2]; above 100 µM in assay [3]; 50 µM in assay [4]; above 100 µM in assay [5]; 18.1 µM in [6]. The GI50 was above 100 µM in assay [7], 19.8 µM in assay [8], 39.6 µM in assay [9] and 81.9 µM in [10]. In addition, the TGI in assay [1] was 61.7 µM; in [2], 90.9 µM; in assay [3], above 100 µM; in assay [4], above 100 µM; in assay [5] it was above 100 µM; in assay [6], 43 µM. The TGI is above 100 µM in assay [7], 48.6 µM in assay [8], above 100 µM in assay [9] and above 100 µM in [10].

Take `CCOc1nccc2c1nc(-c1nonc1N)n2CC`: the GI50 in [1], in assay [2], in assay [3], in assay [4], in [5] and in assay [6] was above 25 µM in each case. The GI50 in assay [7], in assay [8], in [9] and in assay [10] was above 25 µM throughout. For the same compound, the TGI in [1], in [2], in assay [3], in assay [4], in assay [5] and in assay [6] was above 25 µM in each case. For the same compound, the TGI in [7], in [8], in assay [9] and in assay [10] was above 25 µM each time.
